How the values were obtained:
[1] = system: Mus musculus; assay: Immunomodulatory activity in po dosed mouse assessed as reduction in peripheral lymphocyte count measured at 4 hrs; format: functional
[2] = molecular target: Sphingosine 1-phosphate receptor 1 (Homo sapiens, UniProt P21453); assay: Agonist activity at human S1P1 receptor expressed in CHO cells assessed as intracellular calcium levels; format: functional, cell-based
[3] = molecular target: Sphingosine 1-phosphate receptor 3 (Homo sapiens, UniProt Q99500); assay: Agonist activity at human S1P3 receptor expressed in CHO cells assessed as intracellular calcium levels; format: functional, cell-based
[4] = Cmax in rat at 1 mg/kg, po; format: ADME, organism-based; set-up: dose 1 mg/kg, route oral; conditions: in vivo
[5] = Volume of distribution at steady state in rat at 1 mg/kg, iv; format: ADME, organism-based; set-up: dose 1 mg/kg, route intravenous; conditions: in vivo, read-out: Vdss
[6] = AUC (infinity) in rat at 1 mg/kg, iv; format: ADME, organism-based; set-up: time infinity, dose 1 mg/kg, route intravenous; conditions: plasma
[7] = Half life in rat at 1 mg/kg, iv; format: ADME, organism-based; set-up: dose 1 mg/kg, route intravenous; conditions: in vivo
[8] = Total clearance in rat at 1 mg/kg, iv; format: ADME, organism-based; set-up: dose 1 mg/kg, route intravenous; conditions: in vivo
[9] = Half life in rat at 1 mg/kg, po; format: ADME, organism-based; set-up: dose 1 mg/kg, route oral; conditions: in vivo
[10] = AUC (infinity) in rat at 1 mg/kg, po; format: ADME, organism-based; set-up: time infinity, dose 1 mg/kg, route oral; conditions: plasma
[11] = Bioavailability in rat at 1 mg/kg, iv; format: ADME, organism-based; conditions: in vivo

Sphingosine 1-phosphate receptor 1, sequence (P21453 whole entry): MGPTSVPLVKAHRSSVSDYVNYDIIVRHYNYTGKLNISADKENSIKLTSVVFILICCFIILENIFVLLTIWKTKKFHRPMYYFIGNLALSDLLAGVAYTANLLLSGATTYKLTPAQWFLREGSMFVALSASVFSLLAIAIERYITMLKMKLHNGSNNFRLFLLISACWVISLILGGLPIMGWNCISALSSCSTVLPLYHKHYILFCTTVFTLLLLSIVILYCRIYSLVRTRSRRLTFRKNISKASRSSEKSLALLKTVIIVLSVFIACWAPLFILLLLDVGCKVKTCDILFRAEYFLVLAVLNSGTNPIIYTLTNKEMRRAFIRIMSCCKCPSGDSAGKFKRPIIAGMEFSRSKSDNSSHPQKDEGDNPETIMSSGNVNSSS
Sphingosine 1-phosphate receptor 3, sequence (Q99500 whole entry): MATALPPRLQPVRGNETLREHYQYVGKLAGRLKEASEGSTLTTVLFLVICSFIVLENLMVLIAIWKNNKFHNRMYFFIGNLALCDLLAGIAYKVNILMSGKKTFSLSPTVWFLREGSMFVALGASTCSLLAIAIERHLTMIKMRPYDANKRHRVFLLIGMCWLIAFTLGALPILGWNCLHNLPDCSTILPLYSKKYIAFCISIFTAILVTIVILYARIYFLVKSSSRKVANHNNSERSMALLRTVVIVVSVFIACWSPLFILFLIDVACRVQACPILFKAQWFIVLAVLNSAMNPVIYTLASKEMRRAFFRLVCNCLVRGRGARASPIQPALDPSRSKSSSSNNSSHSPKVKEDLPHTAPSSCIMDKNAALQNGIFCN

Row | SMILES | EC50 [2] | EC50 [3] | further results
1 | O=C(O)CCNC/C=C/c1ccc(OCCCc2ccccc2)cc1 |  |  | ED50 [1]: 4.6 mg/kg
2 | O=C(O)CCNC/C=C/c1ccc(OCCCCc2ccccc2)cc1 | 120 nM | > 10000 nM | 
3 | O=C(O)CCNC/C=C/c1ccc(OCCCCCc2ccccc2)cc1 | 150 nM | 6700 nM | 
4 | Cc1cc(/C=C/CNCCC(=O)O)ccc1OCCCCc1ccccc1 | 280 nM | > 10000 nM | 
5 | COc1cc(OCCCCc2ccccc2)ccc1/C=C/CNCCC(=O)O | 230 nM | > 10000 nM | 
6 | O=C(O)C1CCN(C/C=C/c2ccc(OCCCc3ccccc3)cc2)CC1 | 2400 nM | > 10000 nM | 
7 | CC1=C(CN2CC(C(=O)O)C2)CCCc2cc(OCCCCc3ccccc3)ccc21 | 1300 nM | > 10000 nM | 

More lines, in order of falling EC50 [2], values ahead:

Row | EC50 [2] | EC50 [3] | SMILES | further results
8 | 57 nM | 7800 nM | O=C(O)CCNCC1=Cc2ccc(OCCCCc3ccccc3)cc2CC1 | 
9 | 43 nM | 3300 nM | O=C(O)C1CN(C/C=C/c2ccc(OCCCc3ccccc3)cc2)C1 | 
10 | 36 nM | > 10000 nM | Cc1cc(OCCCCc2ccccc2)ccc1/C=C/CNCCC(=O)O | 
11 | 24 nM | 7200 nM | O=C(O)CCNC/C=C/c1ccc(OCCCCc2ccccc2)cc1Cl | 
12 | 11 nM | > 10000 nM | CC1=C(CNCCC(=O)O)CCc2cc(OCCCCc3ccccc3)ccc21 | Cmax [4]: 168 ng/mL; Vd [5]: 0.86 L/kg; AUC(0-inf) [6]: 5400 ng·h/mL; half-life [7]: 5.2 h; clearance [8]: 3.1 mL/min/kg; half-life [9]: 6.9 h; AUC(0-inf) [10]: 2400 ng·h/mL; ED50 [1]: 0.34 mg/kg; bioavailability [11]: 44%
13 | 10 nM | 3000 nM | C/C(=C\c1ccc(OCCCCc2ccccc2)cc1)CNCCC(=O)O | 
14 | 2.9 nM | > 10000 nM | CC1=C(CN2CC(C(=O)O)C2)CCc2cc(OCCCCc3ccccc3)ccc21 | Cmax [4]: 181 ng/mL; Vd [5]: 2.86 L/kg; AUC(0-inf) [6]: 4400 ng·h/mL; half-life [7]: 11 h; clearance [8]: 4 mL/min/kg; half-life [9]: 16.7 h; AUC(0-inf) [10]: 3800 ng·h/mL; ED50 [1]: 0.16 mg/kg; bioavailability [11]: 85%
